This passage reports IC50 results from US12116343B2, “Inhibitors of APOL1 and methods of using same” (Vertex Pharmaceuticals Incorporated, priority 2020, dated 2024).

This assay concerns the target T1, G1 APOL1 (Homo sapiens, UniProt O14791, I384M/S342G).
T1 construct: expressed in transfected cells
T1 sequence (O14791 28-398 S342G/I384M): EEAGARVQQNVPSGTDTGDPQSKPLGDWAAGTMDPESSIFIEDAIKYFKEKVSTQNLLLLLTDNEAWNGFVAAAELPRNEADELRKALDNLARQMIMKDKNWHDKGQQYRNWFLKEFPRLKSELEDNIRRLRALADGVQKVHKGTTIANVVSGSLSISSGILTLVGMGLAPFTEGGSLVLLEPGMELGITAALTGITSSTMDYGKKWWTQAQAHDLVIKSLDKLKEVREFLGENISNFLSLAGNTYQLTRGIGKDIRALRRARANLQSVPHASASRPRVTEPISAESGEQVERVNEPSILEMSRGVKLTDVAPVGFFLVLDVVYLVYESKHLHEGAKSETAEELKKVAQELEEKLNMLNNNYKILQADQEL
The assay is described as follows: Acute APOL1 Thallium Assay with inducible stable clones of HEK 293 cells. The class given is cell-based. Conditions: HEK 293 T-Rex cells expressing G1 APOL1; read-out: Thallium Assay (IC50). In short, it runs like this:
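Tetracycline-inducible HEK293 T-Rex clone G1 DC3.25 expressing G1 APOL1, plated at 26000 cells/well in Opti-MEM with tetracycline induction. APOL1 pore activity read on FLIPR as fluorescence increase from Tl+ influx into cells loaded with a Tl+-sensitive AM-ester dye.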

For orientation: IC50 means the concentration that gives 50% inhibition. In the case of `O=C1CC[C@H](NC(=O)[C@H]2C[C@H](c3c(-c4ccc(F)cc4)[nH]c4c(F)cc(F)cc43)C2)C1` [Compound 139], the IC50 was in the range of 0.25 to 1 µM. Next, `O=C([C@H]1C[C@H](c2c(-c3ccc(F)cc3)[nH]c3c(F)cc(F)cc32)C1)N1CCCC[C@@H]1CCO` [Compound 156]: > 1 µM; `O=C1CCC(NC(=O)[C@H]2C[C@H](c3c(-c4ccc(F)cc4)[nH]c4c(F)cc(F)cc43)C2)C1` (stereo partly shown) [Compound 159]: > 1 µM. The result for `O=C([C@H]1C[C@H](c2c(-c3ccc(F)cc3)[nH]c3c(F)cc(F)cc32)C1)N1CC(O)C(CO)C1` (stereo partly shown) [Compound 138] reads > 1 µM. The result for `CCC1(O)CN(C(=O)[C@H]2C[C@H](c3c(-c4ccc(F)cc4)[nH]c4c(F)cc(F)cc43)C2)C1` [Compound 112] reads > 1 µM; that for `O=C([C@H]1C[C@H](c2c(-c3ccc(F)cc3)[nH]c3c(F)cc(F)cc32)C1)N1CCCC(CCO)C1` (stereo partly shown) [Compound 128], > 1 µM.

Take `O=C([C@H]1C[C@H](c2c(-c3ccc(F)cc3)[nH]c3c(F)cc(F)cc32)C1)N1CCC(CO)(CO)CC1` [Compound 108]: the IC50 is > 1 µM. On to `O=C([C@H]1C[C@H](c2c(-c3ccc(F)cc3)[nH]c3c(F)cc(F)cc32)C1)N1CC[C@H](CO)[C@H](O)C1` [Compound 100], for which the IC50 is > 1 µM. Next, `O=C([C@H]1C[C@H](c2c(-c3ccc(F)cc3)[nH]c3c(F)cc(F)cc32)C1)N1CC[C@H](CO)C1` [Compound 140]: > 1 µM; `O=C1NCC[C@@H]1NC(=O)[C@H]1C[C@H](c2c(-c3ccc(F)cc3)[nH]c3c(F)cc(F)cc32)C1` [Compound 162]: 0.25 to 1 µM. As to `CN1CCC(NC(=O)[C@H]2C[C@H](c3c(-c4ccc(F)cc4)[nH]c4c(F)cc(F)cc43)C2)C1=O` (stereo partly shown) [Compound 7], the IC50 fell in the range of 0.25 to 1 µM. On to `O=C([C@H]1C[C@H](c2c(-c3ccc(F)cc3)[nH]c3c(F)cc(F)cc32)C1)N1CCN(CCO)CC1` [Compound 126], for which the IC50 is > 1 µM. The result for `O=C([C@H]1C[C@H](c2c(-c3ccc(F)cc3)[nH]c3c(F)cc(F)cc32)C1)N1CCC[C@H](O)C1` [Compound 105] reads > 1 µM. The result for `CC(O)C1CCCN(C(=O)[C@H]2C[C@H](c3c(-c4ccc(F)cc4)[nH]c4c(F)cc(F)cc43)C2)C1` (stereo partly shown) [Compound 131] reads > 1 µM; that for `O=C([C@H]1C[C@H](c2c(-c3ccc(F)cc3)[nH]c3c(F)cc(F)cc32)C1)N1CCO[C@H](CO)C1` [Compound 118], > 1 µM. As to `C[C@@H](O)[C@@H](CO)NC(=O)[C@H]1C[C@H](c2c(-c3ccc(F)cc3)[nH]c3c(F)cc(F)cc32)C1` [Compound 160], the 50% inhibitory concentration (IC50) lay within 0.25 to 1 µM. Next, `NC(=O)[C@H]1CCN(C(=O)[C@H]2C[C@H](c3c(-c4ccc(F)cc4)[nH]c4c(F)cc(F)cc43)C2)C1` [Compound 154]: > 1 µM; `O=C([C@H]1C[C@H](c2c(-c3ccc(F)cc3)[nH]c3c(F)cc(F)cc32)C1)N1CC(O)C(N2CCOCC2)C1` (stereo partly shown) [Compound 106]: > 1 µM.

`O=C([C@H]1C[C@H](c2c(-c3ccc(F)cc3)[nH]c3c(F)cc(F)cc32)C1)N1CC2(CC(O)C2)C1` [Compound 137]: the IC50 was > 1 µM. Regarding `CC(C)N(CCO)C(=O)[C@H]1C[C@H](c2c(-c3ccc(F)cc3)[nH]c3c(F)cc(F)cc32)C1` [Compound 123], the IC50 is > 1 µM. Next, `O=C(NC(CO)CO)[C@H]1C[C@H](c2c(-c3ccc(F)cc3)[nH]c3c(F)cc(F)cc32)C1` [Compound 8]: < 0.25 µM.

As for `CN(CC(O)CO)C(=O)[C@H]1C[C@H](c2c(-c3ccc(F)cc3)[nH]c3c(F)cc(F)cc32)C1` (stereo partly shown) [Compound 158], the IC50 is > 1 µM. Next, `O=C([C@H]1C[C@H](c2c(-c3ccc(F)cc3)[nH]c3c(F)cc(F)cc32)C1)N(CCO)c1cnccn1` [Compound 132]: > 1 µM; `NC(=O)C1CCN(C(=O)[C@H]2C[C@H](c3c(-c4ccc(F)cc4)[nH]c4c(F)cc(F)cc43)C2)CC1` [Compound 133]: > 1 µM; `NC(=O)[C@H]1CCCN1C(=O)[C@H]1C[C@H](c2c(-c3ccc(F)cc3)[nH]c3c(F)cc(F)cc32)C1` [Compound 153]: 0.25 to 1 µM.
